{
  "source": "patent US11066629B2",
  "about": "“Lipid metabolism-promoting composition including isoxanthohumol” (SUNTORY HOLDINGS LIMITED, priority 2016, dated 2021)",
  "key": {"[1]": {"assay": "Solubility in water under ice cooling conditions (Experiment A)", "assay_type": "physicochemical", "details": "distilled water, ppm on w/v basis", "source_text": "The solubility of each of the standard samples of xanthohumol and isoxanthohumol in water (Experiment A) and various solvents (Experiment B) under ice cooling conditions was studied to evaluate the suitability for beverage applications. Xanthohumol and isoxanthohumol were the standard samples obtained in Preparation Example 1 (purity of 95% or higher).\nA sample containing distilled water and xanthohumol or isoxanthohumol having a weight corresponding to 0.2% (w/v) of the distilled water was prepared, and each standard sample was allowed to dissolve in distilled water as much as possible by stirring in a vortex mixer for 10 seconds or longer and shaking for about 60 minutes under ice cooling conditions. Further, centrifugation was performed (12,000 rpm, 4° C., for 5 minutes), and the supernatant was collected. This procedure was repeated three times. The finally obtained supernatant was used as a xanthohumol saturated aqueous solution or an isoxanthohumol saturated aqueous solution. The saturated aqueous solution was 100-fold diluted with a 25% aqueous ethanol solution to obtain a sample for analysis. The sample was subjected to quantitative analysis using an LC-MS/MS system (TSQ Quantiva, Thermo Fisher Scientific Inc.) to evaluate the solubility in water. […] Note that ppm is ppm on w/v basis unless otherwise specified. […]"}, "[2]": {"system": "apoptosis inhibitor of macrophage (AIM)", "details": "mouse macrophage-derived cells (J774.1) cultured with isoxanthohumol; cited from earlier work"}, "[3]": {"assay": "Effect of intake on fat burning, respiratory quotient (Oxymax respirometer)", "assay_type": "in vivo, mice (C57BL/6J)", "details": "isoxanthohumol 0.2% in feed, 7 days, vs control group", "source_text": "The effect of isoxanthohumol intake on fat burning was studied by the following procedure using a respirometer “Oxymax” (Bio Research Center Co., Ltd.).\nAs for the group structure, there were two groups: a control group and an isoxanthohumol 0.2% group. Eight mice (C57BL/6J, male, 14 weeks of age, CLFA Japan, Inc.) were purchased and acclimatized for about one week. Then, the mice were divided into the control group and the isoxanthohumol 0.2% group (n=4 in each group) by the stratified continuous randomization method based on body weight. Control diet “D12450J” (Research Diets) was used as basic feed. During the test period, the control group was fed with the basic feed, and the isoxanthohumol 0.2% group was fed with mixed feed of the basic feed and the test substance (isoxanthohumol obtained in Preparation Example 1) at a weight ratio of 0.2% relative to the basic feed.\nThe test period (a period in which the test substance was ingested, and breath analysis was performed) was seven days. […] Using Oxymax (Bio Research Center Co., Ltd.), the oxygen consumption (VO2) and the carbon dioxide output (VCO2) of each individual were measured over time and recorded.\nThe respiratory quotient (RQ) was calculated using the following formula 1 from the oxygen consumption (VO2) and the carbon dioxide output (VCO2) at each point. […]"}, "[4]": {"system": "Cpt1a gene", "assay": "Gene expression in liver by quantitative PCR, high-fat diet model", "assay_type": "in vivo, mice (C57BL/6J)", "details": "isoxanthohumol 30 or 60 mg/kg/day oral, 14 days", "source_text": "(§1) Using the high-fat diet model, the effect of isoxanthohumol intake on expression of a gene related to fat burning was studied by the following procedure.\n(§2) Thirty-two mice (C57BL/6J, male, 8 weeks of age, CLEA Japan, Inc.) were purchased and acclimatized for about one week. Then, the mice were divided into groups (n=8 in each group) in the group structure shown in Table 2 by the stratified continuous randomization method based on body weight. […] In Table 2, “Regular diet” is control diet “D12450J” (Research Diets), and “60 kcal % High-fat diet” is very high-fat diet “D12492” (Research Diets). Isoxanthohumol as the test substance was the standard sample (purity of 95% or higher) obtained in Preparation Example 1. […]\n(§3) The test period was 14 days. […] The amount of the test substance and the volume of the solution were calculated based on the latest body weight on the administration date. […]\n(§4) Using the extracted liver and brown adipose tissue, the effect of isoxanthohumol intake on expression of multiple genes related to lipid metabolism was studied. […] Then, cDNAs were synthesized using High-Capacity cDNA Reverse Transcription Kit (product name, Life Technologies Corporation), and the expression levels of genes shown in Table 3 were examined by quantitative PCR (TaqMan probe method) using Fast Universal PCR Master Mix (product name, Life Technologies Corporation). […]"}, "[5]": {"system": "Acox1 gene", "assay": "Gene expression in liver by quantitative PCR, high-fat diet model", "assay_type": "in vivo, mice (C57BL/6J)", "details": "isoxanthohumol 30 or 60 mg/kg/day oral, 14 days", "source_text": "as §1, §2, §3, §4"}},
  "data": [
    {"molecule": "COc1cc(O)c(CC=C(C)C)c2c1C(=O)CC(c1ccc(O)cc1)O2", "note": "(centres unmarked) [isoxanthohumol]", "values": [
      {"measurement": "Solubility in water (ice cooling conditions)", "setting": "[1]", "result": 6.3, "unit": "ppm"},
      {"measurement": "expression of lipolysis-promoting factor AIM", "setting": "[2]", "result": "enhanced expression"},
      {"measurement": "respiratory quotient (RQ)", "setting": "[3]", "result": "lower"},
      {"measurement": "gene expression level of Cpt1a gene in the liver", "setting": "[4]", "result": "significant increase"},
      {"measurement": "gene expression level of Acox1 gene in the liver", "setting": "[5]", "result": "significant increase"}
    ]}
  ]
}
